According to patent US20250296959A1, “B7-H3 TARGETING PEPTIDES AND CONSTRUCTS THEREOF” (Mariana Oncology Inc., priority 2024, published 2025):
Starred links: 1 amine or outer side, 2 acyl side, 3 side chain; linkers in the order of their positions; H or OH if unused. Positions of bridges follow the written chain, without caps; N, C: chain ends. Non-standard residues stand in square brackets, D forms with d. Residues, ends and D or L forms follow the SMILES beside them. *: point of attachment. Ala(piperidin-4-yl) = O=C([C@H](CC1CCN([*:3])CC1)N[*:1])[*:2]; DOTA = O=C(O)CN1CCN(CC(=O)O)CCN(CC(=O)*)CCN(CC(=O)O)CC1; Trp(5-F) = N[C@@H](Cc1c[nH]c2ccc(F)cc12)C(=O)O; X1 = C[C@@H](c1ccccc1)[C@H](N[*:1])C(=O)[*:2]; Pro(trans-4-F) = O=C(O)[C@@H]1C[C@@H](F)CN1; 1Nal = N[C@@H](Cc1cccc2ccccc12)C(=O)O; Ala(4-THP) = N[C@@H](CC1CCOCC1)C(=O)O; Val(3-OH) = CC(C)(O)[C@H](N)C(=O)O; 4Pal = N[C@@H](Cc1ccncc1)C(=O)O; Tle = CC(C)(C)[C@H](N)C(=O)O; hLeu = CC(C)CC[C@H](N)C(=O)O; Pip = O=C(O)[C@@H]1CCCCN1

Biological target: T1, human 4lg B7-H3 (Homo sapiens, UniProt Q5ZPR3)
T1 sequence (Q5ZPR3 29-534): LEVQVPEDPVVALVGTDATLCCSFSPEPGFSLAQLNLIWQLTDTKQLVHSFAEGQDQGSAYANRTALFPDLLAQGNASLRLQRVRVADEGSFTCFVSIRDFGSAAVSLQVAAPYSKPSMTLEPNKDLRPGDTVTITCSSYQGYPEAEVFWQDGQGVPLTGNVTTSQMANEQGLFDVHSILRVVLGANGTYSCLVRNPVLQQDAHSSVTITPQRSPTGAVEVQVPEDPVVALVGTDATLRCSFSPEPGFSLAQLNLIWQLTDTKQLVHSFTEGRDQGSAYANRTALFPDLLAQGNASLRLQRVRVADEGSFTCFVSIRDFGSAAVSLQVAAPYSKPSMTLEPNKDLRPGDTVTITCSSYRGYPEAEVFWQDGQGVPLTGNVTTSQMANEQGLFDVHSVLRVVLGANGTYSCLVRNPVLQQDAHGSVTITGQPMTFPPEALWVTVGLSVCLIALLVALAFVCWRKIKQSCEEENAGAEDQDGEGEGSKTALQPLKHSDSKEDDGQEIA
Test: Affinity determination by surface plasmon resonance (SPR) to 4Ig B7-H3
Conditions: 4Ig B7-H3

[1] = SPR KD—37° C., 37° C. flow cell temperature
[2] = SPR KD—25° C., 25° C. flow cell temperature

Row | SMILES | Kd [1] [nM] | Kd [2] [nM]
1 | CC(=O)N[C@@H](CCC(C)C)C(=O)N[C@@H](Cc1ccc(O)cc1)C(=O)N[C@H]1CSSC[C@@H](C(=O)N[C@@H](Cc2cccc3ccccc23)C(=O)N[C@H](C(=O)N[C@H](C(=O)N[C@H](CCCCNC(=O)CN2CCN(CC(=O)O)CCN(CC(=O)O)CCN(CC(=O)O)CC2)C(=O)O)C(C)(C)O)[C@@H](C)c2ccccc2)NC(=O)[C@H](Cc2ccc(O)cc2)NC(=O)[C@H](C(C)C)NC(=O)[C@H](CC(=O)O)NC(=O)[C@H](CC2CCOCC2)NC(=O)[C@H](CC2CCNCC2)NC(=O)CNC(=O)[C@H](C(C)(C)C)NC1=O [compound 516, Ac-hLeu-Y-C-Tbg-G-PipAla-ThpA-D-V-Y-C-1Nal-[(2S, 3S)beta-Me-Phe]-hydroxyVal-dLys(DOTA)-COOH] (Ac-[hLeu]YC[Tle]G[Ala(piperidin-4-yl)][Ala(4-THP)]DVYC[1Nal][X1][Val(3-OH)][dK](DOTA)-OH; disulfide 3-11) | < 1 | –
2 | CCCC[C@H](NC(C)=O)C(=O)N[C@@H](Cc1ccc(O)cc1)C(=O)N[C@H]1CSSC[C@@H](C(=O)N[C@@H](Cc2c[nH]c3ccccc23)C(=O)N[C@@H](Cc2ccccc2)C(=O)N[C@@H](CCC(N)=O)C(=O)O)NC(=O)[C@H](Cc2ccc(O)cc2)NC(=O)[C@H](C(C)C)NC(=O)[C@H](CC(=O)O)NC(=O)[C@H](Cc2ccc(O)cc2)NC(=O)[C@H](CCCCN)NC(=O)CNC(=O)[C@H](C(C)C)NC1=O [compound 35, Ac-Nle-Y-C-V-G-K-Y-D-V-Y-C-W-F-gE-CONH2] | – | 10 to 100
3 | CC(=O)N[C@@H](CCC(C)C)C(=O)N[C@@H](Cc1ccc(O)cc1)C(=O)N[C@H]1CSSC[C@@H](C(=O)N[C@@H](Cc2cccc3ccccc23)C(=O)N[C@@H](Cc2ccccc2)C(=O)N2C[C@H](F)C[C@H]2C(=O)O)NC(=O)[C@H](Cc2ccc(O)cc2)NC(=O)[C@H](C(C)C)NC(=O)[C@H](CC(=O)O)NC(=O)[C@H](Cc2ccncc2)NC(=O)[C@H](CCCCNC(=O)CN2CCN(CC(=O)O)CCN(CC(=O)O)CCN(CC(=O)O)CC2)NC(=O)CNC(=O)[C@H](C(C)(C)C)NC1=O [compound 264, Ac-hLeu-Y-C-Tbg-G-Lys(DOTA)-4PyA-D-V-Y-C-1Nal-F-trans4FPro-CONH2] (Ac-[hLeu]YC[Tle]GK(DOTA)[4Pal]DVYC[1Nal]F[Pro(trans-4-F)]-OH; disulfide 3-11) | – | 1 to 10
4 | CC(=O)N[C@@H](CCC(C)C)C(=O)N[C@@H](Cc1ccc(O)cc1)C(=O)N[C@H]1CSSC[C@@H](C(=O)N[C@@H](Cc2c[nH]c3ccc(F)cc23)C(=O)N[C@@H](Cc2ccccc2)C(=O)N[C@H](C(=O)N[C@H](CCCCNC(=O)CN2CCN(CC(=O)O)CCN(CC(=O)O)CCN(CC(=O)O)CC2)C(=O)O)C(C)(C)O)NC(=O)[C@H](Cc2ccc(O)cc2)NC(=O)[C@H](C(C)C)NC(=O)[C@H](CC(=O)O)NC(=O)[C@H](CC2CCOCC2)NC(=O)[C@@H]2CCCCN2C(=O)CNC(=O)[C@H](C(C)(C)C)NC1=O [compound 350, Ac-hLeu-Y-C-Tbg-G-Pip-ThpA-D-V-Y-C-5FW-F-hydroxyVal-dLys(DOTA)-COOH] (Ac-[hLeu]YC[Tle]G[Pip][Ala(4-THP)]DVYC[Trp(5-F)]F[Val(3-OH)][dK](DOTA)-OH; disulfide 3-11) | 10 to 100 | –
5 | CC[C@H](C)[C@@H]1NC(=O)[C@@H](NC(=O)[C@H](Cc2ccc(O)cc2)NC(=O)[C@H](CCC(C)C)NC(C)=O)CSSC[C@@H](C(=O)N[C@@H](Cc2c[nH]c3ccc(F)cc23)C(=O)N[C@@H](Cc2ccccc2)C(=O)N2CCC[C@H]2C(N)=O)NC(=O)[C@H](Cc2ccc(O)cc2)NC(=O)[C@H](C(C)C)NC(=O)[C@H](CC(=O)O)NC(=O)[C@H](Cc2ccncc2)NC(=O)[C@H](CCCCNC(=O)CN2CCN(CC(=O)O)CCN(CC(=O)O)CCN(CC(=O)O)CC2)NC(=O)CNC1=O [compound 260, Ac-hLeu-Y-C-Ile-G-Lys(DOTA)-4PyA-D-V-Y-C-5FW-F-Pro-CONH2] (Ac-[hLeu]YCIGK(DOTA)[4Pal]DVYC[Trp(5-F)]FP-NH2; disulfide 3-11) | – | 1 to 10
